Here are results for 2 compounds from patent US12194019B2, “Compositions and methods for treating pain with wogonin” (BRIGHAM YOUNG UNIVERSITY, priority 2018, dated 2025).

Marks after values point to notes of the source that are not given here. A value given as a limit tells only on which side of the number the result lay.

For assay [1], the system named is OA mouse model (surgical destabilization of the medial meniscal ligament, DMM). Description: Activity wheel use after DMM surgery, topical wogonin cream (Example 1). It counts as in vivo. The procedure: The use of wogonin for the treatment of osteoarthritic (OA) pain was investigated. Specifically, the benefit of using small doses of wogonin applied topically in a cream with penetration enhancers was investigated. The cream formulation shown in Table 2 was used in this study.
(§1) An OA mouse model was used to determine the efficacy of wogonin treatment. OA-like disease was induced by surgical destabilization of the medial meniscal ligament (DMM) of laboratory mice. Repair of the knee was assessed using the Modified Mankin Score which is widely accepted as the way to objectively compare OA progression by histological evaluation of a knee joint (See Larkin D J et al., Frontiers in physiology. 2013; 4:121 and Mankin H J. The New England journal of medicine. 1974; 291(24):1285-92). The mice were housed in activity wheel cages linked to a computer for activity tracking throughout the duration of the experiment. Twenty-four hours after surgical intervention the following treatments were applied topically to the affected knee: 0.00000142 g wogonin (500 μM wogonin) (n=6); 0.0000000028 g wogonin (10 μM wogonin) (n=6); and 10 μl vehicle (n=6). Treatment was applied every third day for 28 days.
At day 28 this pattern was repeated.

For assay [2], the system named is OA mouse model (DMM). Briefly: Activity wheel use after DMM surgery, wogonin in DMSO or in cream (Example 2). It counts as in vivo. How it is done:
(§2) A second experiment using small doses of wogonin applied topically either in DMSO or in a cream with penetration enhancers was conducted. In this study, OA was induced by DMM surgery. Twenty four hours after surgery treatment was applied to the affected knee. The treatments included 0.00000142 g wogonin in 10 μl DMSO (500 μM wogonin) applied to the skin at the location of patellar tendon (n=5); 10 μl DMSO applied to the skin at the location of patellar tendon (n=5); 0.0000000028 g wogonin (10 μl G2 Cream E/10 μM wogonin) to the skin at the location of the patellar tendon (n=5). Treatment was applied every third day for 28 days. Immediately after surgery, mice were placed in an activity wheel cage in which wheel use was recorded on a computer. […] At day 28 this pattern was repeated.

Assay [3] relates to TGF-β1 gene expression in human chondrocytes (TC28a2). Description: qRTPCR of TGF-β1 gene expression in human chondrocytes. Format: cell-based. The procedure:
Human chondrocytes (TC28a2 Sigma-Aldrich, St. Louis, MO, USA) were cultured in EmbryoMax® DMEM (SLM-120 B Millipore, St. Louis, MO, USA) supplemented with 10% Fetal Calf Serum (F-2442-50 ML Sigma-Aldrich, St. Louis, MO, USA) to 80% confluence. Treatments consisted of: • 1. Untreated plate: Remove old media and replace with 10 mL fresh media. Incubate 4 hours. Remove media, rinse 3× with PBS and collect total RNA according to manufacturer's protocol ([…] ZYMO Research, Irvine, CA, USA). • 2. Treat with 10 μM wogonin (dissolved in DMSO). Remove old media and replace with 10 mL conditioned media containing wogonin. Incubate 4 hours. Remove media, rinse 3× with PBS and collect total RNA according to manufacturer's protocol ([…] ZYMO Research, Irvine, CA, USA). • 3. Treat with 1 ng/mL IL-1β (dissolved in dds water). Remove old media and replace with 10 mL conditioned media containing IL-1β. Incubate 4 hours. Remove media, rinse 3× with PBS and collect total RNA according to manufacturer's protocol ([…] ZYMO Research, Irvine, CA, USA). • 4. Treat with 10 μM wogonin; wait 1 hour and add 1 ng/mL IL-1β, incubate 4 hours. Remove old media and replace with 10 mL conditioned media containing wogonin. Incubate 1 hour. […] Quantitative Real-time Polymerase Chain Reaction (qRTPCR) was performed using the Life Technologies One Step Plus Sequence Detection System and Software (Life Technologies). […]

Assay [4] has as its system BBS 3 gene expression in human chondrocytes (TC28a2). Description: qRTPCR of BBS 3 gene expression in human chondrocytes. Format: cell-based. The procedure:
Human chondrocytes (TC28a2 Sigma-Aldrich, St. Louis, MO, USA) were cultured in EmbryoMax® DMEM (SLM-120 B Millipore, St. Louis, MO, USA) supplemented with 10% Fetal Calf Serum (F-2442-50 ML Sigma-Aldrich, St. Louis, MO, USA) to 80% confluence. Treatments consisted of: • 1. Untreated plate: Remove old media and replace with 10 mL fresh media. Incubate 4 hours. Remove media, rinse 3× with PBS and collect total RNA according to manufacturer's protocol ([…] ZYMO Research, Irvine, CA, USA). • 2. Treat with 10 μM wogonin (dissolved in DMSO). Remove old media and replace with 10 mL conditioned media containing wogonin. Incubate 4 hours. Remove media, rinse 3× with PBS and collect total RNA according to manufacturer's protocol ([…] ZYMO Research, Irvine, CA, USA). • 3. Treat with 1 ng/mL IL-1β (dissolved in dds water). Remove old media and replace with 10 mL conditioned media containing IL-1β. Incubate 4 hours. Remove media, rinse 3× with PBS and collect total RNA according to manufacturer's protocol ([…] ZYMO Research, Irvine, CA, USA). • 4. Treat with 10 μM wogonin; wait 1 hour and add 1 ng/mL IL-1β, incubate 4 hours. Remove old media and replace with 10 mL conditioned media containing wogonin. Incubate 1 hour. Add 10 μL 1 ng/mL IL-1β. Pipet media up and down in cell culture dish 3× gently to mix. Incubate 4 hours. Remove media, rinse 3× with PBS and collect total RNA according to manufacturer's protocol ([…] ZYMO Research, Irvine, CA, USA). cDNA was made from total RNA according to manufacturer's protocol (1725038 BIO-RAD, Hercules, CA, USA). Quantitative Real-time Polymerase Chain Reaction (qRTPCR) was performed using the Life Technologies One Step Plus Sequence Detection System and Software (Life Technologies). SYBR-green-based PrimeTime assays (IDT) were used to detect human TGF-β1 and BBS 3.
For orientation: Real-time PCR tracks product formation cycle by cycle.

For assay [5], the system named is MMP-3. As to conditions: intra-articular injection, inflammation initiated by IL-1β; cited from earlier work.
Assay [6] deals with OA mouse model (DMM). Description: Modified Mankin score / histological evaluation of knee joint after DMM surgery (Example 1). It counts as in vivo. The procedure: as §1
(§3) While the wheel use data were encouraging, inhibiting inflammation alone and blocking pain, is insufficient to block the progression of OA. At the conclusion of the experiment (day 28) mice were sacrificed, knees collected, fixed and studied for Modified Mankin score and HtrA1 expression as previously reported in Spencer K MS and Jeffrey Z Kartchner W. Journal of Arthritis. 2015; 04(03). HtrA1 is the first in the biomarker cascade that is associated with OA progression.
(§4) Mouse knee OA was induced by surgical destabilization of the medial meniscal ligament (DMM surgery) and mice were treated with 10 μM of wogonin. Controls were DMM plus vehicle. […] Note the fissure and rough articular cartilage surface (see arrows) in the control knee.

The subject of assay [7] is mouse formalin test. Conditions: intraperitoneal injection, 200 mg/kg; cited from earlier work.
For assay [8], the system named is OA mouse model (DMM). Briefly: Biomarker and Mankin scoring of knees (Example 2). It counts as in vivo. As to conditions: 500 μM (DMSO) vs 10 μM (cream) wogonin. How it is done: as §2
Again, below 1 μM and there would be insufficient wogonin to have an effect. Above 500 μM and there would be too much suppression of inflammation and ceramides. TGF-β1 is inhibited and chondrocytes can't return to homeostasis, […].

Assay [9] has as its system HtrA1. Briefly: HtrA1 immunohistochemical staining in knee joints after DMM surgery (Example 1). Format: in vivo, mouse. As to conditions: knees treated with 10 μM wogonin, day 28.
Source text: as §3, §4

With `COc1c(O)cc(O)c2c(=O)cc(-c3ccccc3)oc12` [Wogonin, 5,7-dihydroxy-8-methoxyflavone], the “Average Wheel Use” value in assay [1] (10 μM wogonin cream topical, Day 7) was 12443**; in assay [1] (10 μM wogonin cream topical, Day 7, listed as wogonin), “significantly higher wheel use than control or vehicle alone”; in assay [1] (10 μM wogonin cream topical, Day 14), 22000***; in assay [1] (10 μM wogonin cream topical, Day 14, listed as wogonin), “higher activity wheel use than those receiving 500 μM”; in assay [1] (10 μM wogonin cream topical, Day 28), 19358**; in [1] (500 μM wogonin cream topical to knee every third day, Day 7), 12608**. In addition, the “Average Wheel Use” value in assay [1] (500 μM wogonin cream topical to knee every third day, Day 7, listed as wogonin) is reported as “significantly higher wheel use than control or vehicle alone”; in [1] (500 μM wogonin cream topical, Day 14) it was 17910**; in assay [1] (500 μM wogonin cream topical, Day 28), 16528*. Besides, the “Average (activity wheel use)” value in [2] (500 μM wogonin in 10 μl DMSO topical, Day 7, listed as Wogonin + DMSO) is 12608*; in assay [2] (500 μM wogonin in 10 μl DMSO topical, Day 7, listed as wogonin in DMSO), “significantly higher wheel use than DMSO only”; in [2] (500 μM wogonin in DMSO topical, Day 14, listed as DMSO+wogonin) it was “no difference”; in [2] (500 μM wogonin in DMSO topical, Day 14, listed as Wogonin + DMSO), 15191; in assay [2] (500 μM wogonin in DMSO topical, Day 28), 15492. Also, the “Drop in gene expression of TGF-β1” value in [3] (10 μM wogonin pre-treatment 1 hour, then 1 ng/mL IL-1β 4 hours) was below 40%. In assay [4] (10 μM wogonin pre-treatment, then 1 ng/mL IL-1β), the “Lowering of the wogonin response (BBS 3 gene expression) by IL-1β” value is “almost half”. Besides, the “Increase in gene expression of BBS 3” value in [4] (10 μM wogonin, 4 hours) is reported as 125%. In addition, the “Increase in BBS 3 expression” value in [4] (wogonin, human chondrocytes) is reported as 1.25 fold. In addition, the “MMP-3 expression in articular cartilage” value in [5] is “decreased MMP-3 expression”. Also, the “OA as measured by Modified Mankin score” value in assay [6] (1 μM wogonin applied topically) is reported as “sufficient to significantly reduce OA”. Further, the “Benefit in reducing the progression of OA” value in assay [6] (10 μM compared to 500 μM wogonin) was “greater benefit”. In addition, the “Modified Mankin score of OA” value in assay [6] (10 μM wogonin topical vs DMM plus vehicle, day 28) is recorded as “statistically (p>0.05) lower”. In addition, the “Effect on inflammation and biomarkers” value in [6] (dosages above 500 μM wogonin) was “too much suppression of inflammation and biomarkers”. Also, the “Effect on OA” value in [6] (dosages below 1 μM wogonin) is recorded as “insufficient to have an effect”. Besides, the “Articular cartilage surface (histology)” value in assay [6] (knees treated with 10 μM wogonin, day 28) is reported as “essentially normal”. Moreover, the “Pain symptoms in mouse formalin test” value in assay [7] is recorded as “improvement of pain symptoms”. In addition, in assay [8], the “Biomarker and Mankin scoring of knees” value was “higher dose of wogonin is beneficial initially but the lower dose remained beneficial throughout the experiment”. Further, the “Expression of HtrA1 (immunohistochemical staining)” value in [9] is listed as “essentially absent”.

On to “IL-1β: pro-inflammatory cytokine used at 1 ng/mL to treat human chondrocytes [reference compound]”, for which, in assay [3] (1 ng/mL IL-1β, 4 hours, vs untreated), the “Drop in gene expression of TGF-β1” value is listed as 80%. Besides, the “Effect on BBS 3 gene expression” value in [4] (1 ng/mL IL-1β alone, 4 hours) is “no effect”.
